# Data from ChEMBL document CHEMBL3132783, “Design, synthesis and biological evaluation of novel ligustrazinylated derivatives as potent cardiovascular agents” (Medchemcomm, 2013).
# How the values were obtained:
# [1] = Antiplatelet activity in rabbit platelet rich plasma assessed as inhibition of ADP-induced aggregation treated for 5 mins prior to ADP-challenge; type: functional; details: Oryctolagus cuniculus
# [2] = Cytoprotective activity in H2O2-induced human ECV304 cells assessed as proliferation rate at 12.5 uM incubated for 24 hrs prior to H2O2-challenge measured after 12 hrs by MTT assay relative to control; type: functional; details: ECV-304, read-out: Activity
# [3] = Antiplatelet activity in rabbit platelet rich plasma assessed as inhibition of ADP-induced aggregation at 0.1 mM treated for 5 mins prior to ADP-challenge relative to control; type: functional; details: Oryctolagus cuniculus
# [4] = Cytoprotective activity in H2O2-induced human ECV304 cells assessed as proliferation rate incubated for 24 hrs prior to H2O2-challenge measured after 12 hrs by MTT assay; type: functional, cell-based; details: ECV-304
# [5] = Antiplatelet activity in rabbit platelet rich plasma assessed as inhibition of ADP-induced aggregation at 0.4 mM treated for 5 mins prior to ADP-challenge relative to control; type: functional; details: Oryctolagus cuniculus
# [6] = Antiplatelet activity in rabbit platelet rich plasma assessed as inhibition of ADP-induced aggregation at 0.05 mM treated for 5 mins prior to ADP-challenge relative to control; type: functional; details: Oryctolagus cuniculus
# [7] = Cytoprotective activity in H2O2-induced human ECV304 cells assessed as proliferation rate at 25 uM incubated for 24 hrs prior to H2O2-challenge measured after 12 hrs by MTT assay relative to control; type: functional; details: ECV-304, read-out: Activity
# [8] = Cytoprotective activity in H2O2-induced human ECV304 cells assessed as proliferation rate at 100 uM incubated for 24 hrs prior to H2O2-challenge measured after 12 hrs by MTT assay relative to control; type: functional; details: ECV-304, read-out: Activity
# [9] = Cytoprotective activity in H2O2-induced human ECV304 cells assessed as proliferation rate at 50 uM incubated for 24 hrs prior to H2O2-challenge measured after 12 hrs by MTT assay relative to control; type: functional; details: ECV-304, read-out: Activity
# [10] = Antiplatelet activity in rabbit platelet rich plasma assessed as inhibition of ADP-induced aggregation at 0.2 mM treated for 5 mins prior to ADP-challenge relative to control; type: functional; details: Oryctolagus cuniculus
SMILES,IC50 [1] [µM],growth at 12.5 µM [2] [%],inhibition at 100 µM [3] [%],EC50 [4] [µM],inhibition at 400 µM [5] [%],inhibition at 50 µM [6] [%],growth at 25 µM [7] [%],growth at 100 µM [8] [%],growth at 50 µM [9] [%],inhibition at 200 µM [10] [%]
Cc1nc(C)c(COc2ccc3ccc(=O)oc3c2)nc1C,1300,38.8,25,140,39.2,21.7,42,46.6,44.2,35.1
Cc1nc(C)c(CSc2nnnn2-c2ccccc2)nc1C,> 2000,-135,12.3,–,9.33,-4.07,-119,-136,-78.4,4.93
Cc1nc(C)c(CSc2nnnn2-c2cccc3ccccc23)nc1C,> 2000,–,10.2,–,13.1,2.25,–,–,–,5.75
CSc1snc(OCc2nc(C)c(C)nc2C)c1C#N,1500,–,13.5,> 100000,32.2,3.36,25.2,–,160,22.6
Cc1nc(C)c(Cn2nnc3ccccc32)nc1C,1800,23.2,7.23,> 100000,28.3,-2.21,25.1,-178,-96.5,16.9
Cc1nc(C)c(Cn2cnc3ccccc32)nc1C,1900,-91.8,11,–,30.9,-0.97,-13.8,–,0.25,13.1
Cc1nc(C)c(CNC(=O)CN2CCCC2=O)nc1C,1200,-35.8,10.4,1300,36,3.23,14.5,26.4,23.4,19.6
C=CCSSCc1nc(C)c(C)nc1C,1300,13,18,1100,38.1,16.7,-17.6,51.1,15,30.4
C=CCc1ccc(OCc2nc(C)c(C)nc2C)c(OC)c1,> 2000,22,1.45,200,6.42,-4.29,28.2,36,30.1,12.3
Cc1nc(C)c(COc2ccc3c(C)cc(=O)oc3c2)nc1C,920,12,8.73,140,40.1,2.27,21,36.6,25.8,17.2
Cc1nc(C)c(CSc2nnc(-c3cccs3)n2N)nc1C,810,36.2,13.4,330,38.5,0.15,37.4,40.2,38.2,23.2
Cc1nc(C)c(CSc2nc(C)c(CC(=O)O)s2)nc1C,620,44.9,35,150,46.9,27.5,46.2,48.1,47,38.3
Cc1nc(C)c(CSc2nnnn2C)nc1C,> 2000,–,4.04,–,9.95,1.53,-180,-117,-77,13.5
Cc1nc(C)c(CSc2nc3ccccc3s2)nc1C,1600,4.33,13.4,360,33.4,5.12,7.95,17.2,9.51,20.9
Cc1nc(C)c(CSc2nnc(-c3ccco3)n2N)nc1C,940,19,10.4,420,35.6,-2.62,21.3,25.8,23.5,20
CCOC(=O)c1ccc(OCc2nc(C)c(C)nc2C)c(OC)c1,> 2000,14.9,3.1,3200,-3.31,9.7,15.5,16,15.8,7.48
Cc1nc(C)c(COc2ccccc2C(=O)O)nc1C,400,14.1,32,610,51.7,15.6,17.4,20,18.2,34.6
COc1cc(C(=O)O)ccc1OCc1nc(C)c(C)nc1C,> 2000,15.1,1.01,810,4.41,11.2,16.4,19,18.4,-11.2
Cc1nc(C)c(C)nc1C [LIGUSTRAZINE],–,10.4,–,600,–,–,12.7,42.8,22.1,–
"O=C(O)CCCCC1CCSS1 (stereo not drawn) [LIPOIC ACID, ALPHA]",–,30.5,–,68,–,–,-12.3,58.1,48.7,–
O=C(O)/C=C/c1ccc(Cn2ccnc2)cc1 [OZAGREL],360,–,27.3,–,55.3,23.3,–,–,–,45.4
